In PMC11968843, “Sulphostin-inspired N-phosphonopiperidones as selective covalent DPP8 and DPP9 inhibitors” (Nature Communications, 2025):
Like-named read-outs stand apart in the source and are kept apart here.

Key:
Type in all cases: biochemical
[1] = biological target: T1, DPP4 (Homo sapiens, UniProt P27487); assay: biochemical
T1 construct: purchased Proteros Biostructures GmbH, Germany
Experimental: (§1) Enzyme activity of DPP4, DPP8, DPP9 (Proteros Biostructures GmbH, Germany) and PREP (Sigma Aldrich, USA) was determined by measuring the initial velocity of AMC release from the fluorogenic substrate GP-AMC (Sigma Aldrich, USA) using a Tecan Spark® 10 M multimode microplate reader (Tecan Group Ltd., Switzerland) in activity buffer (20 mM HEPES/KOH pH 7.3, 110 mM potassium acetate, 2 mM Mg acetate, 0.5 mM EGTA, 0.02% Tween 20, supplemented with 1 mM DTT) and a final volume of 20 μL for maximal 60 min at 30 °C. Prior to activity measurement, 10 nM enzyme was incubated for 45 min at 30 °C and gentle shaking with the inhibitor compounds in concentrations ranging from 0 to 100 μM. The compounds were dissolved in DMSO and diluted in activity buffer (final DMSO concentration: 1%). […] IC50 values were calculated using Graph-Pad Prism v10.2.3 using the equation: [Inhibitor] vs. response—Variable slope (four parameters). All measurements were performed in triplicates and error bars represent standard errors of the fit.

[2] = biological target: T2, DPP8 (Homo sapiens, UniProt Q6V1X1); assay: biochemical
T2 construct: purchased Proteros Biostructures GmbH, Germany
T2 sequence (Q6V1X1 whole entry): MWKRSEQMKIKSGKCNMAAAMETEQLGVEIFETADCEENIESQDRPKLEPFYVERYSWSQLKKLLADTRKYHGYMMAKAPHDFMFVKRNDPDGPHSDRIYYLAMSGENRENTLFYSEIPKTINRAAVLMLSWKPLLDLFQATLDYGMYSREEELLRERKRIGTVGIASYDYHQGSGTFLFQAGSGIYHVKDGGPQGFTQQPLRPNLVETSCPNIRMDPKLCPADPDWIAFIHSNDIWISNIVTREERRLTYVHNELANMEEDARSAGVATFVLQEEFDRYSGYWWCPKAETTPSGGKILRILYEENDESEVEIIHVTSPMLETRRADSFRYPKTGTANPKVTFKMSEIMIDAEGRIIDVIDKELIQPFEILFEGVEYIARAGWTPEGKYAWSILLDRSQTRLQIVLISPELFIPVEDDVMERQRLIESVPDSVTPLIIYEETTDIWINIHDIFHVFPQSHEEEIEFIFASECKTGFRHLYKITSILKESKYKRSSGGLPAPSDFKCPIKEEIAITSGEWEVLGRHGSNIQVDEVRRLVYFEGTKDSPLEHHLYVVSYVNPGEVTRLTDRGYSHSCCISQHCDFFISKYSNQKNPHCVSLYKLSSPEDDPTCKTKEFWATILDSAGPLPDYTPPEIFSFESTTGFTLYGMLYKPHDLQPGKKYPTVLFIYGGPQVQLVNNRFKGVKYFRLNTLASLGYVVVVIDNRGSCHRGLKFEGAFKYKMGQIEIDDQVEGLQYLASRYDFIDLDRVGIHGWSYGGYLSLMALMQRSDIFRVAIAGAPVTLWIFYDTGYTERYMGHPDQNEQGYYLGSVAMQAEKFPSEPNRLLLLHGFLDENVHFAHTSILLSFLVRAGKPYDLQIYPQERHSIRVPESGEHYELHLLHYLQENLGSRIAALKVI
Experimental: as §1

[3] = biological target: T1, DPP4; conditions: DPP4, n=3
Experimental: To calculate the reaction rate of covalent bond formation between DPP proteins and inhibitor, kinact, KI and kapp was determined as previously described[30],[51]. […] Enzyme activity was measured for a maximum of 120 min at 30 °C, and fluorescence intensities were then plotted against time. Data was fitted to the following equation: Y=(vi/kobs)*(1−exp(−kobs*X)) using Graph-Pad Prism v10.2.3. The obtained pseudo-first-order rate constant was used to determine the maximum enzyme inhibition rate (kinact) and binding affinity (KI) by fitting the plot of kobs against inhibitor concentration to the following equation: Y=kinact/1+(KI/[I]) . The efficiency of covalent bond formation (kapp) was calculated by the ratio of kinact/KI. All measurements were performed in triplicates and error bars represent standard errors of the fit.

[4] = biological target: T2, DPP8; assay: Time-dependent DPP8 inhibition kinetics (kobs, KI, kinact, kapp); conditions: for kobs: n=3
Experimental: (§2) To calculate the reaction rate of covalent bond formation between DPP proteins and inhibitor, kinact, KI and kapp was determined as previously described[30],[51]. Therefore, 250 µM GP-AMC was added simultaneously with a serial dilution of the inhibitor to 10 nM enzyme. Enzyme activity was measured for a maximum of 120 min at 30 °C, and fluorescence intensities were then plotted against time. Data was fitted to the following equation: Y=(vi/kobs)*(1−exp(−kobs*X)) using Graph-Pad Prism v10.2.3. The obtained pseudo-first-order rate constant was used to determine the maximum enzyme inhibition rate (kinact) and binding affinity (KI) by fitting the plot of kobs against inhibitor concentration to the following equation: Y=kinact/1+(KI/[I]) . The efficiency of covalent bond formation (kapp) was calculated by the ratio of kinact/KI. All measurements were performed in triplicates and error bars represent standard errors of the fit.

[5] = biological target: T3, DPP9 (Homo sapiens, UniProt Q86TI2); assay: biochemical; parameters: purchased Proteros Biostructures GmbH, Germany
T3 sequence (Q86TI2 whole entry): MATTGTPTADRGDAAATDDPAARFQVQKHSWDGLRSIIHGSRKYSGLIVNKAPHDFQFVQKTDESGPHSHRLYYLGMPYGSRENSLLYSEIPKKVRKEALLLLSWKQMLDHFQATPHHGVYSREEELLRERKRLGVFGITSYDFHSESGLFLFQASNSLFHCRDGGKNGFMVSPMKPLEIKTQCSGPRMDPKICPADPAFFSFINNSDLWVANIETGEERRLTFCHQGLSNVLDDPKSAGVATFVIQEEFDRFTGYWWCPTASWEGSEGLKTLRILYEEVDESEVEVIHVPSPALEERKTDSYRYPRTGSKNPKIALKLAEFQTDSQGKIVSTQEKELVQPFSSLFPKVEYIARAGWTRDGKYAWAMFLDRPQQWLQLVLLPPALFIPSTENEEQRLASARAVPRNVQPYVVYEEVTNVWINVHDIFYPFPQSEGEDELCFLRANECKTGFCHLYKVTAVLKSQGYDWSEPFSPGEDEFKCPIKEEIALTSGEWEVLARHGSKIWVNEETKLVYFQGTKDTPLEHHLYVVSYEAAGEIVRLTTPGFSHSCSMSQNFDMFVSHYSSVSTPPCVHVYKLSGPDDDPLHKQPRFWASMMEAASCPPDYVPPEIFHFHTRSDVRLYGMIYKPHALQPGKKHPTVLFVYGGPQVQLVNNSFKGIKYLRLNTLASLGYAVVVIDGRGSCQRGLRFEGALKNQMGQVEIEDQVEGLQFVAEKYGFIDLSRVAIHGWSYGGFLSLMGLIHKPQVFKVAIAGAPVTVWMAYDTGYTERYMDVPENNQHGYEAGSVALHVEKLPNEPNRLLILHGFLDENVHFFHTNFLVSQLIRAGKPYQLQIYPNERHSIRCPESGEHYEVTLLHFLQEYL
Experimental: as §1

[6] = biological target: T3, DPP9; assay: Time-dependent DPP9 inhibition kinetics (kobs, KI, kinact, kapp); parameters: purchased Proteros Biostructures GmbH, Germany; conditions: DPP9, n=3
Experimental: as §2

T1 sequence (P27487 whole entry): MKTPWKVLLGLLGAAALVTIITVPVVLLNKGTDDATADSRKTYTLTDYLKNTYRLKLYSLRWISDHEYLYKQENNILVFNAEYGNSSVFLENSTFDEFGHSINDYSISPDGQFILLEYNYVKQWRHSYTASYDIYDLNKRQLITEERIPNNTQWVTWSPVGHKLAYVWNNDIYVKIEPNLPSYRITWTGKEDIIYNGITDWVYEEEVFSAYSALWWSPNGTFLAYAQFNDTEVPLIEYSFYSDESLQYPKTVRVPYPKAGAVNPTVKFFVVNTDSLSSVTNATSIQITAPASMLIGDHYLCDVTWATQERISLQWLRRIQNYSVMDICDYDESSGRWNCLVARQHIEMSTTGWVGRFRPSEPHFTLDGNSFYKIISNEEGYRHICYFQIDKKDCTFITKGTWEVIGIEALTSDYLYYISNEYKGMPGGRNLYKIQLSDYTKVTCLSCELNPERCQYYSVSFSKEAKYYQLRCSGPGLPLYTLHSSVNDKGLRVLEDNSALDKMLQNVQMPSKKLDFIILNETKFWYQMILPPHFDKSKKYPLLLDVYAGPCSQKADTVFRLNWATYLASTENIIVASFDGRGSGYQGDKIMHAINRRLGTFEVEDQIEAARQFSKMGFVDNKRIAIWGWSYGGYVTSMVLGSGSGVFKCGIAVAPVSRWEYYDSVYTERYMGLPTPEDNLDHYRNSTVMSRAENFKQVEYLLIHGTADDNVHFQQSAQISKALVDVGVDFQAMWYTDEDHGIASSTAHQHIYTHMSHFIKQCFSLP

Work on CCCCCCP(=O)(OCC)N1CCC[C@H](N)C1=O (some centres unmarked) [Compound 5] yielded an IC50 ([1]; IC50 DPP4, GP-AMC 250 µM, 10 nM enzyme, 45 min pre-incubation at 30 °C) of 46.7 µM, a remaining activity at 1.5625 µM ([1]; read-out: DPP4 activity [%], c 1562.5 nM, replicates) of 101% and a remaining activity at 3.125 µM ([1]; read-out: DPP4 activity [%], c 3125 nM, replicates) of 103%. It also gave a remaining activity at 6.25 µM ([1]; read-out: DPP4 activity [%], c 6250 nM, replicates) of 105%, a remaining activity at 25 µM ([1]; read-out: DPP4 activity [%], c 25000 nM, replicates) of 79.6% and a remaining activity at 50 µM ([1]; read-out: DPP4 activity [%], c 50000 nM, replicates) of 44.3%. For the same compound, the remaining activity at 100 µM ([1]; read-out: DPP4 activity [%], c 100000 nM, replicates) was 23.3%, the IC50 [2] was 13.7 µM and the remaining activity at 1.5625 µM ([2]; read-out: DPP8 activity [%], c 1562.5 nM, replicates) was 94.2%. For the same compound, the remaining activity at 3.125 µM ([2]; read-out: DPP8 activity [%], c 3125 nM, replicates) was 84.3%, the remaining activity at 6.25 µM ([2]; read-out: DPP8 activity [%], c 6250 nM, replicates) was 64.1% and the remaining activity at 15.625 µM ([2]; read-out: DPP8 activity [%], c 15625 nM, replicates) was 42.1%. The remaining activity at 25 µM ([2]; read-out: DPP8 activity [%], c 25000 nM, replicates) was 28.4%, the remaining activity at 31.25 µM ([2]; read-out: DPP8 activity [%], c 31250 nM, replicates) was 19.4% and the remaining activity at 50 µM ([2]; read-out: DPP8 activity [%], c 50000 nM, replicates) was 13.9%. The remaining activity at 62.5 µM ([2]; read-out: DPP8 activity [%], c 62500 nM, replicates) was 4.38%, the remaining activity at 100 µM ([2]; read-out: DPP8 activity [%], c 100000 nM, replicates) was 5.19% and the kobs ([3]; c 25000 nM) was 0.001878 s⁻¹. The kobs ([3]; c 50000 nM) was 0.001819 s⁻¹, the kobs ([3]; c 100000 nM) was 0.001824 s⁻¹ and the kapp ([4]; DPP8) was 36.00 M⁻¹ s⁻¹. It also gave a kinact best fit ([4]; DPP8) of 0.0004148 s⁻¹, a kobs ([4]; DPP8, c 1562.5 nM) of 9.14e-05 s⁻¹ and a kobs ([4]; DPP8, c 6250 nM) of 0.000151 s⁻¹. The kobs ([4]; DPP8, c 25000 nM) was 0.000235 s⁻¹, the kobs ([4]; DPP8, c 50000 nM) was 0.00037 s⁻¹ and the “kapp DPP8” value ([4]; ratio kinact/KI) was 36 M⁻¹ s⁻¹. The KI (inactivation) ([4]; read-out: KI DPP8, irreversible inhibition, fit of kobs vs inhibitor concentration) was 11.5 µM, the KI (inactivation) ([4]; read-out: KI best fit, DPP8) was 11.5 µM and the KI (inactivation) ([4]; read-out: KI best fit, DPP8, fit of kobs vs inhibitor concentration) was 11.5 µM. The kinact ([4]; read-out: kinact DPP8, irreversible inhibition, fit of kobs vs inhibitor concentration) was 0.00042 ± 7e-05 s⁻¹, the kinact ([4]; read-out: kinact best fit, DPP8) was 0.000415 s⁻¹ and the IC50 [5] was 42.7 µM. For the same compound, the remaining activity at 1.5625 µM ([5]; read-out: DPP9 activity [%], c 1562.5 nM, replicates) was 97%, the remaining activity at 3.125 µM ([5]; read-out: DPP9 activity [%], c 3125 nM, replicates) was 96.9% and the remaining activity at 6.25 µM ([5]; read-out: DPP9 activity [%], c 6250 nM, replicates) was 89.1%. For the same compound, the remaining activity at 15.625 µM ([5]; read-out: DPP9 activity [%], c 15625 nM, replicates) was 77.4%, the remaining activity at 25 µM ([5]; read-out: DPP9 activity [%], c 25000 nM, replicates) was 65.7% and the remaining activity at 31.25 µM ([5]; read-out: DPP9 activity [%], c 31250 nM, replicates) was 60.7%. It also gave a remaining activity at 50 µM ([5]; read-out: DPP9 activity [%], c 50000 nM, replicates) of 45.5%, a remaining activity at 62.5 µM ([5]; read-out: DPP9 activity [%], c 62500 nM, replicates) of 38.8% and a remaining activity at 100 µM ([5]; read-out: DPP9 activity [%], c 100000 nM, replicates) of 22.1%. The remaining activity at 250 µM ([5]; read-out: DPP9 activity [%], c 250000 nM, replicates) was 5.77%, the remaining activity at 500 µM ([5]; read-out: DPP9 activity [%], c 500000 nM, replicates) was 1.09% and the kobs ([6]; c 25000 nM) was 0.000207 s⁻¹. The kobs ([6]; c 50000 nM) was 0.000227 s⁻¹ and the kobs ([6]; c 100000 nM) was 0.000318 s⁻¹.
